Columns and labels:
[1] = tested on: S180 tumor cells; test: MTT cell viability assay, S180 tumor cells; type: cell-based, murine; conditions: S180 tumor cell line, 48 h
Description: (§1) The murine sarcoma-180 tumor cells (S180) (ATCC# TIB-66) and normal murine fibroblast cells (L-929) (ATCC# CCL-1) were cultured in suspension in RPMI 1640 and DMEM media (Sigma Chemical Co., MO), respectively, supplemented with 10% fetal calf serum, 100 µg/mL penicillin, and 100 µg/mL streptomycin. The cultures were incubated in a humidified incubator (Thermo Scientific) at 37°C with 5% CO2.
(§2) The cytotoxic effects of the amino acid ruthenium complexes were evaluated using an MTT assay with S180 tumor cells and L929 normal cells as described previously. Briefly, 1.0×10^5 S180 cells and 2.0×10^4 L929 cells were plated in 96-well tissue culture plates and treated with different concentrations of amino acid ruthenium complexes (0.2–200 µM) for 48 h. After treatment, 10 µL of MTT (5 mg mL^−1) was added to each well, and the plates were incubated at 37°C for an additional 3 h. The purple formazan crystals were dissolved in 50 µL of SDS, and the absorbance was determined at 545 nm using a Stat Fax 2100 microplate reader (Awareness Technology, Palm City, FL, USA). The cell viability was calculated as follows: viability (%) = (absorbance of the treated wells)/(absorbance of the control wells) ×100. The IC50 (complex concentration (µM) that results in a 50% reduction in cellular viability) was obtained from dose-response curves using GraphPad Prism 4.02 for Windows (GraphPad Software, San Diego, CA, USA).

[2] = tested on: L929 normal cells; test: MTT cell viability assay, L929 normal cells; type: cell-based, murine; conditions: L929 normal cell line, 48 h
Description: as §1, §2

[3] = tested on: pBR322 plasmid DNA; set-up: method as in PMID 21875763; conditions: previous study; cited from earlier work
[4] = tested on: S180 cells; set-up: method as in earlier work; conditions: previous studies; cited from earlier work

SMILES | IC50 [1] [µM] | IC50 [2] [µM] | effect on plasmid DNA (AFM images) [3] | numbers of Annexin V-positive S180 cells [4]
N.N.[Cl][Pt][Cl] [Cisplatin, cisplatin, reference compound] | 64.83 ± 0.17 | 29.1 ± 1.88 | – | –
CSCC[C@H](N)C(=O)[O-].F[P-](F)(F)(F)(F)F.[Ru+2].c1ccc(-c2ccccn2)nc1.c1ccc(P(CCCCP(c2ccccc2)c2ccccc2)c2ccccc2)cc1 [Complex 1, [Ru(met)(bipy)(dppb)]PF6] | 22.5 ± 3.4 | 27.4 ± 3.32 | – | –
CC(C)C[C@H](N)C(=O)[O-].F[P-](F)(F)(F)(F)F.[Ru+2].c1ccc(-c2ccccn2)nc1.c1ccc(P(CCCCP(c2ccccc2)c2ccccc2)c2ccccc2)cc1 [Complex 3, [Ru(leu)(bipy)(dppb)]PF6] | 38.2 ± 7 | 47.1 ± 5.94 | – | –
F[P-](F)(F)(F)(F)F.F[P-](F)(F)(F)(F)F.N[C@@H](CC(=O)O)C(=O)O.[Ru+2].c1ccc(-c2ccccn2)nc1.c1ccc(P(CCCCP(c2ccccc2)c2ccccc2)c2ccccc2)cc1 [Complex 4, [Ru(aspac)(bipy)(dppb)](PF6)2] | 42.2 ± 3.98 | 107 ± 8.98 | – | –
C[C@H](N)C(=O)[O-].F[P-](F)(F)(F)(F)F.[Ru+2].c1ccc(-c2ccccn2)nc1.c1ccc(P(CCCCP(c2ccccc2)c2ccccc2)c2ccccc2)cc1 [Complex 5, [Ru(ala)(bipy)(dppb)]PF6] | 50.2 ± 1.03 | 97.8 ± 8.99 | – | –
F[P-](F)(F)(F)(F)F.O=C1[O][Ru-4]23([n+]4ccccc41)([n+]1ccccc1-c1cccc[n+]12)[P+](c1ccccc1)(c1ccccc1)CCCC[P+]3(c1ccccc1)c1ccccc1 [[Ru(pic)(dppb(bipy)]PF6] | – | – | strong aggregation of plasmid DNA | –
N.N.N.N.[Cl-].[Cl][Ru+][Cl] [cis-[RuCl2(NH3)4]Cl] | – | – | – | increased the numbers of Annexin V-positive S180 cells
